Test results: patent US20030135023A1, “Peptide structures useful for competitive modulation of dipeptidyl peptidase IV catalysis” (priority 2001, published 2003)
Where “and” joins values, the source holds several entries; their conditions need not be identical. Identical values can stand only once. Square brackets hold non-standard residues; d marks the D form. Peptide text beside a SMILES is read from it. Tle = CC(C)(C)[C@H](N)C(=O)O

Legend:
purified porcine DP IV = purified porcine DP IV (Sus scrofa, UniProt P22411); test: Determination of IC50-values, Gly-Pro-pNA cleavage by DP IV; format: biochemical; conditions: Gly-Pro-pNA 0.4 mM, HEPES pH 7.6, 30° C.; read-out: IC50
Method: 100 μl inhibitor stock solution were mixed with 100 μl buffer (HEPES pH 7.6) and 50 μl substrate (Gly-Pro-pNA, final concentration 0.4 mM) and preincubated at 30° C. Reaction was started by addition of 20 μl purified porcine DP IV. Formation of the product pNA was measured at 405 nm over 10 min using the HTS 7000 Plus plate reader (Perkin Elmer) and slopes were calculated. The final inhibitor concentrations ranged between 1 mM and 30 nM.
For calculation of IC50-values GraFit 4.0.13 (Erithacus Software) was used.

plasma DP IV = molecular target: T1, plasma DP IV (Rattus norvegicus, UniProt P14740); test: Plasma DP IV activity after intravasal and oral administration in Wistar rats; format: in vivo; conditions: for Plasma DP IV activity / DP IV-AUC / Drop of plasma DP IV activity: iv (intravasal) 100 mg/kg b.w.
T1 construct: The assay mixture consisted of 80 μl reagent and 20 μl plasma; from tissue; host or cells: plasma of Wistar rats
Method: Rats with intact catheter function were given the test substances intravasal (intraarterial) or oral, respectively, in random order (N=3 Wistar rats in each group). As positive control, […]. isoleucine thiazolidine*fumarate were administered intravasal.
After overnight fasting, 100 μl samples of heparinized arterial blood were collected at −30, −5, and 0 min into ice-cooled Eppendorf tubes (see below). The test substances were dissolved freshly in 1.0 ml saline (0.154 mol/l) and were given at 0 min either oral via a feeding tube ([…], 75 mm; Fine Science Tools, Heidelberg, Germany) or intravasal. For the intravasal route, the catheter was immediately flushed with 30 μl saline and an additional 1 ml of saline was given orally via the feeding tube.
Arterial blood samples were taken thereafter at 5, 10 (only in a limited number of experiments), 20, 40, 60 and 120 min from the carotid catheter of the conscious unrestrained rats and were always given into ice cooled Eppendorf tubes (Eppendorf-Netheler-Hinz, Hamburg, Germany) filled with 10 μl 1 M citrate buffer pH 3.0 for prevention of further hydrolysis of tripeptides by plasma DP IV activity. Eppendorf tubes were centrifuged immediately (12000 rpm for 2 min, Hettich Zentrifuge EBA 12, Tuttlingen; Germany): The plasma fractions were store on ice until analysis or were deeply frozen at −20 ° C. until analysis.
Plasma DP IV activity: The assay mixture consisted of 80 μl reagent and 20 μl plasma. Kinetic measurements of the formation of the yellow product 4-nitroaniline were performed at 390 nm for 1 min at 30° C. after 2 min pre-incubation at the same temperature. The activity was expressed as arbitrary units [AU] and DP IV activity [mU/ml].
The absolute values of plasma DP IV activity, the relative change of plasma DP IV activity and the time and extent of maximal inhibition were calculated. Data presentation included the presentation of area under the curve (AUC), which was used for evaluation of extent of inhibition of plasma DP IV activity during the two hours of observation. AUC was calculated using the trapezoidal rule.
To compare relative changes of parameters under the conditions of different initial values of DP IV activity an uniform standardised mean (values) was set up at the beginning of the test (see Figures and Tables).
Statistical evaluations were performed with Microsoft Excel® 97. All variables are presented as mean and standard deviation (SD). Treatment groups were compared by Student's t-test, within-group changes by paired t-test. Two-tailed values of p<0.05 were considered significant.

T1 sequence (P14740 37-767 limits assumed): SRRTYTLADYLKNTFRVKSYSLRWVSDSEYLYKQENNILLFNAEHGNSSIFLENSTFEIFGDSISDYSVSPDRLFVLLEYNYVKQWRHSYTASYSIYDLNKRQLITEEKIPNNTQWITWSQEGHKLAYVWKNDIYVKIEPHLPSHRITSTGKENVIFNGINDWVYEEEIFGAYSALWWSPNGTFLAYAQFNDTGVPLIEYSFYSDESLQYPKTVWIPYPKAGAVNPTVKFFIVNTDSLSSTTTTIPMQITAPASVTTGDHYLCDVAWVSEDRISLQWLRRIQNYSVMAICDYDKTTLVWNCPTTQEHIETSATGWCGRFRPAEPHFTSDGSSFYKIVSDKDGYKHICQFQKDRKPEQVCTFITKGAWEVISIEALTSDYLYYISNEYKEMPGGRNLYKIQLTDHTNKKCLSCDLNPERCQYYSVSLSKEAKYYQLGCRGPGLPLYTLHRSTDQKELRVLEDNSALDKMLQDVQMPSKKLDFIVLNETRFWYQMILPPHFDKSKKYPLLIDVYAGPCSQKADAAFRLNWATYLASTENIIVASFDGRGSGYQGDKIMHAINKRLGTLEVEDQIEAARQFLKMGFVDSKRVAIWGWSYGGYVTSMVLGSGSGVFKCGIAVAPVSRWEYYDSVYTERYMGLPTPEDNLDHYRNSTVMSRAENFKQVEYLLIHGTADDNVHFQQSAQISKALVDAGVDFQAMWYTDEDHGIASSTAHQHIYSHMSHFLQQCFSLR
Sequence of purified porcine DP IV (P22411 whole entry): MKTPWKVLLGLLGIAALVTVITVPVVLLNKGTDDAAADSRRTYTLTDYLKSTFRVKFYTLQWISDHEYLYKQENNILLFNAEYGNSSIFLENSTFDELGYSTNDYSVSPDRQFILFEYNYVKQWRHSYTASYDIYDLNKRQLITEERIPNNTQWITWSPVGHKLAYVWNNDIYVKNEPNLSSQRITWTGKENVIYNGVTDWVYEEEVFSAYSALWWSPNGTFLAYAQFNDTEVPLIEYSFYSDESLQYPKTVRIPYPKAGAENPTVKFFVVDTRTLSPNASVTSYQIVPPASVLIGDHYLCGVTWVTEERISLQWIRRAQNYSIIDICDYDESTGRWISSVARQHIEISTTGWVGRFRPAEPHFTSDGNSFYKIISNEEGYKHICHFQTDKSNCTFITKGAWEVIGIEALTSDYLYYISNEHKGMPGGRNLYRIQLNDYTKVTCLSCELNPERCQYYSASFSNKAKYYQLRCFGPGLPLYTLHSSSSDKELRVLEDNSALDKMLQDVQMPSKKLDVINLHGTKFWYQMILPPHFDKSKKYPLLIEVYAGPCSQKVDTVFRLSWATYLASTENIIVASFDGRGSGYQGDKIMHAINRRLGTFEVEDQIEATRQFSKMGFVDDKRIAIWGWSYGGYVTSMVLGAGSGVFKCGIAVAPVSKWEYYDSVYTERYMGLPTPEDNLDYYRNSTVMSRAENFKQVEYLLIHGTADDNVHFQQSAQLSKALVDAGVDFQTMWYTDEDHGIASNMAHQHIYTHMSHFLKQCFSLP

IC50 (purified porcine DP IV): 9.34 µM
DP IV-AUC0-120 min (plasma DP IV; intra-vasal 100 mg/kg b.w.): −617±234 mU·min·ml^−1
plasma DP IV at 5 min (plasma DP IV; intravasal 100 mg/kg b.w., p<0.05): below 10 mU/ml
Plasma DP IV activity (plasma DP IV; 2.5 min, Mean): 19.01 mU/ml
Plasma DP IV activity (plasma DP IV; 2.5 min, Standardized Mean): 15.18 mU/ml
Plasma DP IV activity (plasma DP IV; 5 min, Mean): 18.86 mU/ml
Plasma DP IV activity (plasma DP IV; 5 min, Standardized Mean): 15.03 mU/ml
Plasma DP IV activity (plasma DP IV; 7.5 min, Mean): 21.05 mU/ml
Plasma DP IV activity (plasma DP IV; 7.5 min, Standardized Mean): 17.22 mU/ml
Plasma DP IV activity (plasma DP IV; 10 min, Mean): 17.25 mU/ml
Plasma DP IV activity (plasma DP IV; 10 min, Standardized Mean): 13.42 mU/ml
Plasma DP IV activity (plasma DP IV; 15 min, Mean): 15.50 mU/ml
Plasma DP IV activity (plasma DP IV; 15 min, Standardized Mean): 11.67 mU/ml
Plasma DP IV activity (plasma DP IV; 20 min, Mean): 18.71 mU/ml
Plasma DP IV activity (plasma DP IV; 20 min, Standardized Mean): 14.88 mU/ml
Plasma DP IV activity (plasma DP IV; 20 min, individual animals, 100 mg/kg): 15.35 mU/ml (2×) and 25.44 mU/ml
Plasma DP IV activity (plasma DP IV; 40 min, Mean): 17.98 mU/ml
Plasma DP IV activity (plasma DP IV; 40 min, Standardized Mean): 14.15 mU/ml
Plasma DP IV activity (plasma DP IV; 60 min, Mean): 17.25 mU/ml
Plasma DP IV activity (plasma DP IV; 60 min, Standardized Mean): 13.42 mU/ml
Plasma DP IV activity (plasma DP IV; 120 min, Mean): 19.44 mU/ml
Plasma DP IV activity (plasma DP IV; 120 min, Standardized Mean): 15.61 mU/ml
DP IV-AUC (plasma DP IV; Mean): −673.4 AU · min
Drop of plasma DP IV activity (plasma DP IV; Mean): 5.19 mU/ml
Drop of plasma DP IV activity (plasma DP IV; individual animals, 100 mg/kg): 5.70 mU/ml and 6.58 mU/ml and 3.29 mU/ml
time period over which plasma DP IV decreased slowly (plasma DP IV; oral 100 mg/kg b.w.): 40 min
Structure (SMILES): CC[C@H](C)[C@H](NC(=O)[C@@H]1CCCN1C(=O)[C@@H](N)C(C)(C)C)C(=O)O [t-butyl-Gly-Pro-Ile] (H-[Tle]-Pro-Ile-OH; N-terminus and C-terminus assumed)
Plasma DP IV activity (plasma DP IV; 2.5 min, individual animals, 100 mg/kg): 15.35 mU/ml and 27.63 mU/ml and 14.04 mU/ml
Plasma DP IV activity (plasma DP IV; 5 min, individual animals, 100 mg/kg): 15.35 mU/ml and 25.00 mU/ml and 16.23 mU/ml
Plasma DP IV activity (plasma DP IV; 7.5 min, individual animals, 100 mg/kg): 17.11 mU/ml and 27.63 mU/ml and 18.42 mU/ml
Plasma DP IV activity (plasma DP IV; 10 min, individual animals, 100 mg/kg): 17.11 mU/ml and 20.18 mU/ml and 14.47 mU/ml
Plasma DP IV activity (plasma DP IV; 15 min, individual animals, 100 mg/kg): 14.47 mU/ml and 18.42 mU/ml and 13.60 mU/ml
Plasma DP IV activity (plasma DP IV; 40 min, individual animals, 100 mg/kg): 14.91 mU/ml and 23.68 mU/ml and 15.35 mU/ml
Plasma DP IV activity (plasma DP IV; 60 min, individual animals, 100 mg/kg): 15.79 mU/ml and 22.37 mU/ml and 13.60 mU/ml
Plasma DP IV activity (plasma DP IV; 120 min, individual animals, 100 mg/kg): 17.11 mU/ml and 25.88 mU/ml and 15.35 mU/ml
DP IV-AUC (plasma DP IV; individual animals, 100 mg/kg): −452.9 AU · min and −1179.3 AU · min and −388.2 AU · min
